Target: T1, human tyrosinase enzyme (Homo sapiens, UniProt P14679)
T1 sequence (P14679 19-529): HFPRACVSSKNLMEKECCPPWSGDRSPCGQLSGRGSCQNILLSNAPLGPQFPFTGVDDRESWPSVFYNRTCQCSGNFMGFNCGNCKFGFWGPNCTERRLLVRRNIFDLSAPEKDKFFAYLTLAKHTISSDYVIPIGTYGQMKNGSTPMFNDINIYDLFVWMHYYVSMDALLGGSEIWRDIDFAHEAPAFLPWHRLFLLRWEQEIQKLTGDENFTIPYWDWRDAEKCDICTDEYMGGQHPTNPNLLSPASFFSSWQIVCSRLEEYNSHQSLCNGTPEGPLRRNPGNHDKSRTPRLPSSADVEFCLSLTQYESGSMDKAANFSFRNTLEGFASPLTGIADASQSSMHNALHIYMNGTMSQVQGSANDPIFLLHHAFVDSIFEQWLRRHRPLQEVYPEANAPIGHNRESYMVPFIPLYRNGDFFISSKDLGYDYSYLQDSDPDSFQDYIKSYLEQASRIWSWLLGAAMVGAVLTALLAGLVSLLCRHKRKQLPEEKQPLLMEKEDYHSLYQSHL
Assay: human tyrosinase inhibition (procedure as for mushroom tyrosinase)
Format: biochemical
Conditions: sample at 7.5 ppm
Experimental: An indication of the efficacy of skin lightening was determined using an in-vitro tyrosinanse inhibition assay using mushroom tyrosinase. The assay comprised measuring O-diphenolase activities of mushroom tyrosinase with L-DOPA as substrate. This was determined spectrophotometrically by measuring the rate of dopachrome formation at 450 nm (ε=3700 M−1 cm−1). Inhibition studies were done by measuring the dopachrome formation in the presence of various extracts of plant material. The experiment was conducted using the following procedure:
The following stock solutions were prepared. 0.1 M phosphate buffer (KH2PO4, pH=6.5); 3.5 mM L-DOPA in phosphate buffer; 1 mg/ml mushroom tyrosinase enzyme (100 kU) in phosphate buffer. To the KH2PO4 buffer (q.s. to 200 μL) in a 96 well plate having flat bottom was added the desired sample (about 6 μl) followed by 8 μL of mushroom tyrosinase enzyme. This was left at room temperature in the dark for 15 min to enable incubation. Then L-DOPA (57 μL, […]) was added to the resultant solution and the progress of dopachrome formation was observed by measuring the absorbance at 450 nm (A450) on a Tecan spectrophotometer. Percent inhibition was calculated using (Control: without inhibitor) […]

CCc1ccc(O)cc1O [Example 5, ethyl resorcinol]
% human tyrosinase inhibition: 40%

Reference: US20120195840A1, “PERSONAL CARE COMPOSITION” (priority 2009, published 2012)
